# Data taken from the supplement of paper PMC6045584.
# ± gives the standard deviation of the averaged measurements.
# Tests used:
# [1] = compound: COc1cc2nccc(Oc3ccc(NC(=O)NC4CC4)c(Cl)c3)c2cc1C(N)=O [LENVATINIB]; experiment: surviving fraction relative to DMSO-only wells; higher = less growth inhibition; conditions: exposure time: 5 days
# Outline: (§1)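 Viability was determined by CellTiter-Glo luminescence, expressed as surviving fraction normalised to the median of DMSO-only wells. The cells were log-phase tumour cell lines seeded at 250–500 per well in 384-well plates and, after 24 hours, exposed continuously for five days to inhibitors at 0.5, 1, 5, 10, 50, 100, 500 and 1000 nM. Three screens per line were run, keeping only lines with replicate Pearson r >0.7 and median Z' >0.3.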
# [2] = compound: Cc1ccc(NC(=O)c2ccc(CN3CCN(C)CC3)cc2)cc1Nc1nccc(-c2cccnc2)n1 [IMATINIB]; experiment: as above; conditions: exposure time: 5 days
# Outline: as §1
test system,measurement,setting,value
HCC1954 BREAST,surviving fraction,[1]; 0.5 nM,0.904 ± 0.058
same,surviving fraction,[1]; 1 nM,0.817 ± 0.05
same,surviving fraction,[1]; 5 nM,1.0393 ± 0.00035
same,surviving fraction,[1]; 10 nM,0.917 ± 0.04
same,surviving fraction,[1]; 50 nM,0.993 ± 0.058
same,surviving fraction,[1]; 100 nM,0.988 ± 0.011
same,surviving fraction,[1]; 500 nM,1.03 ± 0.11
same,surviving fraction,[1]; 1000 nM,1.11 ± 0.067
same,surviving fraction,[2]; 0.5 nM,1.2 ± 0.15
same,surviving fraction,[2]; 1 nM,1.28 ± 0.091
same,surviving fraction,[2]; 5 nM,1.23 ± 0.12
same,surviving fraction,[2]; 10 nM,1.27 ± 0.045
same,surviving fraction,[2]; 50 nM,0.9283 ± 0.006
same,surviving fraction,[2]; 100 nM,0.887 ± 0.025
same,surviving fraction,[2]; 500 nM,1.07 ± 0.1
same,surviving fraction,[2]; 1000 nM,1 ± 0.0071
HCT15 LARGE INTESTINE,surviving fraction,[1]; 0.5 nM,1.09 ± 0.031
same,surviving fraction,[1]; 1 nM,1.08 ± 0.039
same,surviving fraction,[1]; 5 nM,1.08 ± 0.031
same,surviving fraction,[1]; 10 nM,1.09 ± 0.063
same,surviving fraction,[1]; 50 nM,1.13 ± 0.052
same,surviving fraction,[1]; 100 nM,1.17 ± 0.061
same,surviving fraction,[1]; 500 nM,1.12 ± 0.028
same,surviving fraction,[1]; 1000 nM,1.14 ± 0.021
same,surviving fraction,[2]; 0.5 nM,1.13 ± 0.027
same,surviving fraction,[2]; 1 nM,1.1 ± 0.035
same,surviving fraction,[2]; 5 nM,1.12 ± 0.024
same,surviving fraction,[2]; 10 nM,1.12 ± 0.038
same,surviving fraction,[2]; 50 nM,1.15 ± 0.08
same,surviving fraction,[2]; 100 nM,1.119 ± 0.011
same,surviving fraction,[2]; 500 nM,1.18 ± 0.054
same,surviving fraction,[2]; 1000 nM,1.14 ± 0.046
HELA CERVIX,surviving fraction,[1]; 0.5 nM,1.06 ± 0.088
same,surviving fraction,[1]; 1 nM,1.04 ± 0.095
same,surviving fraction,[1]; 5 nM,1.05 ± 0.061
same,surviving fraction,[1]; 10 nM,1.05 ± 0.071
same,surviving fraction,[1]; 50 nM,1.17 ± 0.04
same,surviving fraction,[1]; 100 nM,1.19 ± 0.1
same,surviving fraction,[1]; 500 nM,1.19 ± 0.1
same,surviving fraction,[1]; 1000 nM,1.17 ± 0.044
same,surviving fraction,[2]; 0.5 nM,1.13 ± 0.034
same,surviving fraction,[2]; 1 nM,1.04 ± 0.039
same,surviving fraction,[2]; 5 nM,1.03 ± 0.056
same,surviving fraction,[2]; 100 nM,1.1 ± 0.016
same,surviving fraction,[2]; 500 nM,1.14 ± 0.086
same,surviving fraction,[2]; 1000 nM,1.09 ± 0.043
HOS BONE,surviving fraction,[1]; 0.5 nM,1.03 ± 0.012
same,surviving fraction,[1]; 1 nM,1.067 ± 0.0047
same,surviving fraction,[1]; 5 nM,1.03 ± 0.028
same,surviving fraction,[1]; 10 nM,1.02 ± 0.025
same,surviving fraction,[1]; 50 nM,1.06 ± 0.071
same,surviving fraction,[1]; 100 nM,1.05 ± 0.047
same,surviving fraction,[1]; 500 nM,1.02 ± 0.017
same,surviving fraction,[1]; 1000 nM,0.946 ± 0.0092
same,surviving fraction,[2]; 0.5 nM,1.03 ± 0.02
same,surviving fraction,[2]; 5 nM,1.04 ± 0.028
same,surviving fraction,[2]; 10 nM,1.047 ± 0.0078
same,surviving fraction,[2]; 100 nM,1.06 ± 0.023
same,surviving fraction,[2]; 500 nM,1.03 ± 0.037
HOSMNG BONE,surviving fraction,[1]; 0.5 nM,1.02 ± 0.036
same,surviving fraction,[1]; 1 nM,1.03 ± 0.023
same,surviving fraction,[1]; 5 nM,0.964 ± 0.06
same,surviving fraction,[1]; 10 nM,1.02 ± 0.043
same,surviving fraction,[1]; 50 nM,1.11 ± 0.033
same,surviving fraction,[1]; 100 nM,1.07 ± 0.036
same,surviving fraction,[1]; 500 nM,1.09 ± 0.067
same,surviving fraction,[1]; 1000 nM,1.05 ± 0.091
same,surviving fraction,[2]; 0.5 nM,1.04 ± 0.12
same,surviving fraction,[2]; 1 nM,1.01 ± 0.067
same,surviving fraction,[2]; 5 nM,0.994 ± 0.085
same,surviving fraction,[2]; 10 nM,1 ± 0.019
same,surviving fraction,[2]; 50 nM,1.09 ± 0.1
same,surviving fraction,[2]; 100 nM,1.14 ± 0.073
same,surviving fraction,[2]; 1000 nM,1.07 ± 0.14
